In ChEMBL document CHEMBL3885881, “DrugMatrix”:

Species on record: Rattus norvegicus
Assay: DrugMatrix - Regimen: Daily Repeat
Format: toxicity, organism-based, Sprague-Dawley
Design: regimen Daily Repeat, gender Male, age 6-8 weeks
Conditions: in vivo, po, route oral GAVAGE, vehicle 100 % WATER; for ABSOLUTE BASOPHIL / ABSOLUTE EOSINOPHIL / ABSOLUTE LYMPHOCYTE / ABSOLUTE MONOCYTE / ABSOLUTE SEGMENTED NEUTROPHIL / BASOPHIL / EOSINOPHIL / ERYTHROCYTE COUNT / HEMATOCRIT / HEMOGLOBIN / LEUKOCYTE COUNT / LYMPHOCYTE / MEAN CORPUSCULAR HEMOGLOBIN / MEAN CORPUSCULAR HEMOGLOBIN CONCENTRATION / MEAN CORPUSCULAR VOLUME / MONOCYTE / NEUTROPHIL / NUCLEATED RED BLOOD CELLS / PLATELET COUNT: tissue Blood; for ALANINE AMINOTRANSFERASE / ALBUMIN / ALKALINE PHOSPHATASE / ASPARTATE AMINOTRANSFERASE / BLOOD UREA NITROGEN / CARBON DIOXIDE / CHLORIDE / CHOLESTEROL / CREATINE PHOSPHOKINASE / CREATININE / GLUCOSE / LACTATE DEHYDROGENASE / LIPASE / PHOSPHORUS / POTASSIUM / SODIUM / TOTAL BILIRUBIN / TOTAL PROTEIN / URIC ACID: tissue Plasma
[1] = 0 mg/kg, 72 h, dose level Control, time 3 day
[2] = 0 mg/kg, 120 h, dose level Control, time 5 day
[3] = 1 mg/kg, 72 h, dose level Low, time 3 day

For CN1C2CCCC1CC(NC(=O)c1nn(C)c3ccccc13)C2 (centres undefined) [GRANISETRON], the “ABSOLUTE BASOPHIL” value [1] was 0 CELLS/uL, the “ABSOLUTE EOSINOPHIL” value [1] was 0 CELLS/uL and the “ABSOLUTE LYMPHOCYTE” value [1] was 8482.5 CELLS/uL. For the same molecule, the “ABSOLUTE MONOCYTE” value [1] was 63.83 CELLS/uL, the “ABSOLUTE SEGMENTED NEUTROPHIL” value [1] was 887 CELLS/uL and the BASOPHIL [1] was 0%. For the same molecule, the EOSINOPHIL [1] was 0%, the “ERYTHROCYTE COUNT” value [1] was 5.49 x10E6/uL and the HEMATOCRIT [1] was 34.5%. The HEMOGLOBIN [1] was 13.33 G/DL, the “LEUKOCYTE COUNT” value [1] was 9.43 x10E3/uL and the LYMPHOCYTE [1] was 90.17%. The “MEAN CORPUSCULAR HEMOGLOBIN” value [1] was 24.3 pg, the “MEAN CORPUSCULAR HEMOGLOBIN CONCENTRATION” value [1] was 38.63 G/DL and the “MEAN CORPUSCULAR VOLUME” value [1] was 62.88 fL. For the same molecule, the MONOCYTE [1] was 0.67%, the NEUTROPHIL [1] was 9.17% and the “NUCLEATED RED BLOOD CELLS” value [1] was 0.67 /100WBC. For the same molecule, the “PLATELET COUNT” value [1] was 1022.83 x10E3/uL, the “ALANINE AMINOTRANSFERASE” value [1] was 50.5 u/L and the ALBUMIN [1] was 4.08 G/DL. For the same molecule, the “ALKALINE PHOSPHATASE” value [1] was 368.33 u/L, the “ASPARTATE AMINOTRANSFERASE” value [1] was 87.5 u/L and the “BLOOD UREA NITROGEN” value [1] was 12.83 mg/dL. The “CARBON DIOXIDE” value [1] was 32.83 mmol/L, the CHLORIDE [1] was 99.67 MEQ/L and the CHOLESTEROL [1] was 79.67 mg/dL. For the same molecule, the “CREATINE PHOSPHOKINASE” value [1] was 585 u/L, the CREATININE [1] was 0.22 mg/dL and the GLUCOSE [1] was 135.67 mg/dL. The “LACTATE DEHYDROGENASE” value [1] was 171 u/L, the LIPASE [1] was 9.5 u/L and the PHOSPHORUS [1] was 11.18 mg/dL. For the same molecule, the POTASSIUM [1] was 6.25 MEQ/L, the SODIUM [1] was 144.87 MEQ/L and the “TOTAL BILIRUBIN” value [1] was 0.2 mg/dL. For the same molecule, the “TOTAL PROTEIN” value [1] was 6.08 G/DL, the “URIC ACID” value [1] was 0.65 mg/dL and the “ABSOLUTE BASOPHIL” value [2] was 0 CELLS/uL. For the same molecule, the “ABSOLUTE EOSINOPHIL” value [2] was 14.5 CELLS/uL, the “ABSOLUTE LYMPHOCYTE” value [2] was 7596.17 CELLS/uL and the “ABSOLUTE MONOCYTE” value [2] was 69.67 CELLS/uL. The “ABSOLUTE SEGMENTED NEUTROPHIL” value [2] was 503 CELLS/uL, the BASOPHIL [2] was 0% and the EOSINOPHIL [2] was 0.17%. For the same molecule, the “ERYTHROCYTE COUNT” value [2] was 5.49 x10E6/uL, the HEMATOCRIT [2] was 34.72% and the HEMOGLOBIN [2] was 13.47 G/DL. The “LEUKOCYTE COUNT” value [2] was 8.18 x10E3/uL, the LYMPHOCYTE [2] was 92.17% and the “MEAN CORPUSCULAR HEMOGLOBIN” value [2] was 24.57 pg. The “MEAN CORPUSCULAR HEMOGLOBIN CONCENTRATION” value [2] was 38.82 G/DL, the “MEAN CORPUSCULAR VOLUME” value [2] was 63.3 fL and the MONOCYTE [2] was 1%. For the same molecule, the NEUTROPHIL [2] was 6.67%, the “NUCLEATED RED BLOOD CELLS” value [2] was 0 /100WBC and the “PLATELET COUNT” value [2] was 1141 x10E3/uL. The “ALANINE AMINOTRANSFERASE” value [2] was 48.33 u/L, the ALBUMIN [2] was 4.07 G/DL and the “ALKALINE PHOSPHATASE” value [2] was 395.67 u/L. For the same molecule, the “ASPARTATE AMINOTRANSFERASE” value [2] was 85.67 u/L, the “BLOOD UREA NITROGEN” value [2] was 15.83 mg/dL and the “CARBON DIOXIDE” value [2] was 31.33 mmol/L. The CHLORIDE [2] was 100.83 MEQ/L, the CHOLESTEROL [2] was 62.33 mg/dL and the “CREATINE PHOSPHOKINASE” value [2] was 248.33 u/L. The CREATININE [2] was 0.2 mg/dL, the GLUCOSE [2] was 135.67 mg/dL and the “LACTATE DEHYDROGENASE” value [2] was 141.33 u/L. For the same molecule, the LIPASE [2] was 9.5 u/L, the PHOSPHORUS [2] was 10.73 mg/dL and the POTASSIUM [2] was 6.07 MEQ/L. The SODIUM [2] was 145.35 MEQ/L, the “TOTAL BILIRUBIN” value [2] was 0.22 mg/dL and the “TOTAL PROTEIN” value [2] was 6.12 G/DL. The “URIC ACID” value [2] was 0.63 mg/dL, the “ABSOLUTE BASOPHIL” value [3] was 0 CELLS/uL and the “ABSOLUTE EOSINOPHIL” value [3] was 35.67 CELLS/uL. For the same molecule, the “ABSOLUTE LYMPHOCYTE” value [3] was 7674 CELLS/uL, the “ABSOLUTE MONOCYTE” value [3] was 0 CELLS/uL and the “ABSOLUTE SEGMENTED NEUTROPHIL” value [3] was 690.33 CELLS/uL. The BASOPHIL [3] was 0%, the EOSINOPHIL [3] was 0.33% and the “ERYTHROCYTE COUNT” value [3] was 5.55 x10E6/uL. For the same molecule, the HEMATOCRIT [3] was 33.93%, the HEMOGLOBIN [3] was 12.9 G/DL and the “LEUKOCYTE COUNT” value [3] was 8.4 x10E3/uL. For the same molecule, the LYMPHOCYTE [3] was 92%, the “MEAN CORPUSCULAR HEMOGLOBIN” value [3] was 23.3 pg and the “MEAN CORPUSCULAR HEMOGLOBIN CONCENTRATION” value [3] was 38.03 G/DL. The “MEAN CORPUSCULAR VOLUME” value [3] was 61.3 fL, the MONOCYTE [3] was 0% and the NEUTROPHIL [3] was 7.67%. The “NUCLEATED RED BLOOD CELLS” value [3] was 0.33 /100WBC, the “PLATELET COUNT” value [3] was 1023.67 x10E3/uL and the “ALANINE AMINOTRANSFERASE” value [3] was 49 u/L. The ALBUMIN [3] was 4 G/DL, the “ALKALINE PHOSPHATASE” value [3] was 371 u/L and the “ASPARTATE AMINOTRANSFERASE” value [3] was 82.67 u/L. For the same molecule, the “BLOOD UREA NITROGEN” value [3] was 11.67 mg/dL, the “CARBON DIOXIDE” value [3] was 34 mmol/L and the CHLORIDE [3] was 99.33 MEQ/L. For the same molecule, the CHOLESTEROL [3] was 76.33 mg/dL, the “CREATINE PHOSPHOKINASE” value [3] was 380.33 u/L and the CREATININE [3] was 0.29 mg/dL. The GLUCOSE [3] was 141.67 mg/dL, the “LACTATE DEHYDROGENASE” value [3] was 138.33 u/L and the LIPASE [3] was 12 u/L. It also gave a PHOSPHORUS [3] of 10.8 mg/dL, a POTASSIUM [3] of 5.77 MEQ/L and an SODIUM [3] of 145.17 MEQ/L. The “TOTAL BILIRUBIN” value [3] was 0.1 mg/dL, the “TOTAL PROTEIN” value [3] was 5.83 G/DL and the “URIC ACID” value [3] was 0.57 mg/dL.
